The values that follow come from patent US10501453B2, “Benzothiazole or benzoxazole compounds as SUMO activators” (Icahn School of Medicine at Mount Sinai, priority 2012, dated 2019).

By solubility is commonly meant the dissolved amount per volume that the medium holds. As a reminder, the fold induction is the signal under treatment as a multiple of the control signal. Low values mean a weak induction, high ones a strong induction.

Data set [1] in a line: Solubility (Table 2). Particulars: DMSO, organic solvent or mixture.
The subject of data set [2] is SERCA2a. As to the kind of experiment: SERCA2a SUMOylation assay in HEK-293 cells (immunoprecipitation/immunoblotting). In kind it is cell-based. Particulars: compared with DMSO control; 10 μM. The source says:
(§1) The following antibodies were used for immunoblotting and immunoprecipitation (IP): polyclonal anti-SERCA2a (21th century Biochem Inc.), monoclonal anti-GAPDH (Sigma-Aldrich, catalog no. G8795), monoclonal anti-SUMO 1 (Cell Signaling Technology Inc., catalog no. 4930), anti-mouse horseradish peroxidase (HRP) (Pierce Biotechnology Inc., catalog no. 32430), and anti-rabbit HRP (Pierce Biotechnology Inc., catalog no. 32460). YFP-tagged SUMO1, pcDNA3.0-SERCA2a, and HA-tagged Ubc9 plasmids were used for the transfection. The plasmid DNA was amplified in the Escherichia coli strain DH5a and extracted by using a commercial purification kit (Qiagen, catalog no. 12263). Purified plasmid was resuspended in sterile TE buffer (10 mM Tris-HCl and 1 mM EDTA, pH 7.6). Only the preparation highest purity (A260/A280>1.8) was used for transfection. 1 μg of each plasmid was used for transfection. HEK-293 cells (American Type Culture Collection, catalog no. CRL-1873) were grown at 37° C. and under a 5% CO2 humidified atmosphere in Dulbecco's modified Eagle's medium (DMEM, Cellgro, catalog no. 10-0 13-CM) containing 10% fetal bovine serum (SAFC Bioscience, catalog no. 12107) and 100 i.u of penicillin/ml and 100 μg of streptomycin/ml. HEK-293 cells were seeded at a density of 3-5×10^5 cells per 60 mm culture dish in DMEM. The cells were transiently transfected using Lipofectamine 2000 (Invitrogen, catalog no. 11668) with indicated expression plasmids. After 24 hours, the cells were treated with either small molecules or dimethyl sulfoxide (DMSO, Sigma-Aldrich, catalog no. D2650).
(§2) Each compound was added at 10 μM. DMSO was used as a control. After 24 hours at 37° C., SERCA2a SUMOylation and functional analysis were determined.
Equal amounts of protein from either small molecule treated or DMSO treated cells or immunoprecipitates were resolved by 7.5% SDS-PAGE and transferred to nitrocellulose membranes (Bio-Rad, catalog no. 162-0112). The membranes were blocked for 1 hour at room temperature with 5% non-fat milk (Cell Signaling Technology Inc., catalog no. 9999) in TBST (10 mM Tris-HCl, 150 mM NaCl, and 0.05% tween-20, pH 8.0). The blots were incubated with specific primary antibodies at 4° C. for overnight. The blots were then washed five times for 10 minutes each with TBST and incubated for 1 hour with HRP-conjugated secondary antibodies in TBST with 5% non-fat milk. After five times TBST washes, the protein bands were visualized with enhanced chemiluminescence (Pierce Biotechnology Inc., catalog no. 32132) and exposed to x-ray film (Denville Scientific Inc., catalog no. E3012). GAPDH expression provided an internal control.
Post-transfection (48 hours), the HEK-293 cells were rinsed twice with phosphate-buffered saline (PBS, Cellgro, catalog no. 21-040-CM) and lysed in 1% Nonidet P-40 lysis buffer (Boston Bioproducts, catalog no. BP-119) with 10 mM N-ethylmaleimide (NEM, Sigma-Aldrich, catalog no. N3876) and […] inhibitor cocktail (Complete Mini Tablet, Roche Applied Science, catalog no. 11836153001). 2 mg of protein were mixed with the anti-SERCA2a antibodies for overnight at 4° C. in lysis buffer. Pre-washed protein A-Separose beads (Pierce Biotechnology Inc., catalog no. 20333) was added to each sample and incubated 1 hour at 4° C. with gentle rocking. Immunocomplexes were washed with lysis buffer three times and precipitated by centrifugation at 12000×g for 10 seconds. The immunocomplexes were resuspended in SDS sample buffer and subjected to immunoblotting. Controls for the immunoprecipitations were performed using an anti-rabbit IgG equal to that of the primary precipitating antibody. Ten percent of whole cell lysates used in the immunoprecipitation was loaded for subsequent immunoblotting.
The ability of the Example compound to SUMOylate SERCA2a was examined using an in vitro system in HEK 293 cells where both SERCA2a and SUMO 1 are expressed. […]
Background: A western blot detects proteins with antibodies after separation by electrophoresis.

In data set [3] the test system is adult rat ventricular myocytes (ARVMs). The experiment in a line: Cell shortening/re-lengthening and calcium transient of ARVMs (IonOptix). In kind it is cell-based. Particulars: compared to DMSO control; 10 μM. The procedure:
Calcium-tolerant adult rat ventricular myocytes (ARVMs) were obtained from hearts of male Sprague-Dawley rats (250 to 300 g). The heart was excised and perfused with a standard enzymatic technique. ARVMs were plated on multi-chambered plates or culture dishes, pre-coated with laminin 2 μg/cm^2, at a density of 10^5 cells/cm^2 in DMEM without L-glutamine supplemented with 10 mmol/l HEPES, 3.7 mg/ml NaHCO3, 1 mg/ml glucose, 0.11 mg/ml sodium pyruvate, 2 mg/ml bovine serum albumin, 2 mmol/1 L-camitine, 5 mmol/1 creatine, 5 mmol/1 taurine, 1% penicillin-streptomycin, and 1% gentamycin. Following isolation, cells were allowed to settle for 1 hour. Cultures were incubated at 37° C., in an atmosphere of 5% CO2-95% air. Fresh medium was added gently as medium was being drawn off until the cultures had been thoroughly washed. Only quiescent, rod-shape cardiac myocytes were selected for IonOptix experiments.
as §2
Mechanical properties of ARVMs were assessed using an IonOptix MyoCam® system (IonOptix, Milton, Mass.). In brief, cells were placed in a Warner chamber mounted on the stage of an inverted microscope (Olympus, IX-70) and superfused (1 ml/min at 30° C.) with a buffer containing 131 mM NaCl, 4 mM KCl, 1 mM CaCh, 1 mM MgCh, 10 mM glucose, and 10 mM HEPES, pH 7.4. ARVMs were field stimulated with suprathreshold voltage and at a frequency of 0.5 Hz. […] SoftEdge software (IonOptix) was used to capture changes in cell length during shortening and re-lengthening.
ARVMs were placed in a chamber on an Olympus IX-70 inverted microscope and imaged through a Fluor 40× oil objective. ARVMs were exposed to light emitted by a 75 W lamp and passed through either a 360 or a 380 nm filter (bandwidths were ±15 nm), while being stimulated to contract at 0.5 Hz. Fluorescence emissions were detected between 480 and 520 nm by a photomultiplier tube after first illuminating cells at 360 nm for 0.5 s then at 380 nm for the duration of the recording protocol (333 Hz sampling rate). The 360 nm excitation scan was repeated at the end of the protocol and qualitative changes in intracellular Ca^2+ concentration ((Ca^2+]i) were inferred from the ratio of the fluorescence intensity at two wavelengths.
The effects of the Example compound was examined on isolated rat cardiomyocytes shortening and relaxation parameters. […] Effects of Example 1 on mechanical properties of the ARVMs were assessed using a video-based edge detection system (IonOptix). The time constant of the increase of force during the stretch decreased (tau), percentage of peak shortening (PS), maximal rate of relaxation and contraction were analyzed at 24 hrs postincubation of the compounds in culture media (N=10 ARVMs). The mechanical data were analyzed with student's t-test (FIG. 2A, P<0.05 compared to the DMSO treated cells). SERCA2a SUMOylation profiling was analyzed in a same set of ARVMs (FIG. 2B, WCL, whole cell lysates; S-SERCA2a, SUMOylated SERCA2a).

The subject of data set [4] is HEK-293 cells. As to the kind of experiment: Toxicity (Table 2; cytotoxicity in the compound screen).
Data set [5] relates to YFP-SUMO1. As to the kind of experiment: YFP-SUMO1 accumulation (cell image) in HEK-293 cells expressing YFP-SUMO1 and pcDNA3.0-SERCA2a. The conditions noted are these: increase vs. DMSO; for fold induction at 10 µM: Homo sapiens, HEK293, 24 hours. In kind it is cell-based.
Text: as §1, §2
Cellular permeability and potential activity of the compounds were examined by tracking of the YFP-SUMO1. HEK-293 cells expressing YFP-SUMOI and pcDNA3.0-SERCA2a were incubated with either 10 μM DMSO or 10 μM small molecules for 24 hours at 37° C. Fluorescent signals were monitored by fluorescence microscopy. HA-tagged Ubc9 expressing cells were served as a positive control.
The ability of the Example compound to SUMOylate SERCA2a was examined using an in vitro system in HEK 293 cells where both SERCA2a and SUMO 1 are expressed. The cellular permeability and potential activity of the Example compounds was examined by tracking of the YFP-SUM01. HEK-293 cells expressing YFP-SUM01 and pcDNA3.0-SERCA2a were treated with either 10 μM DMSO or 10 μM indicated Example 1 for 24 hrs. Fluorescent signals were monitored by fluorescence microscopy. HA-Ubc9 expressing cells were served as a positive control. The SERCA2a SUMOylation profiling was then analyzed by using the same cells (FIG. 1B, WCL, whole cell lysates; S-SERCA2a, SUMOylated SERCA2a).

Data set [6] relates to HEK-293 cells.

Converted amounts (≈) assume the structure as drawn. Where two headings read alike, the source gives them in different places.

`Fc1ccc(-c2nnc(Nc3nc4c(F)cccc4s3)o2)cc1` [Example 2, N-(4-fluorobenzo[d]thiazol-2-yl)-5-(4-fluorophenyl)-1,3,4-oxadiazol-2-amine]: the solubility in data set [1] came to 10 mM (≈ 3300 µg/mL). Moreover, the “SERCA2a SUMOylation” value in data set [2] was “Increased 1.34x compared with DMSO control”. For the same compound, the “Cardiac Contraction: Peak shortening” value in data set [3] is “Peak shortening 2.2x compared to DMSO control”. The Toxicity result in data set [4] is given as “Non-toxic”. In addition, the fold induction at 10 µM in data set [5] was determined as 2.93.
For `COc1cccc(-c2nnc(Nc3nc4c(F)cccc4s3)o2)c1` [Example 3, N-(4-fluorobenzo[d]thiazol-2-yl)-5-(3-methoxyphenyl)-1,3,4-oxadiazol-2-amine], in data set [1], the solubility stood at 10 mM (≈ 3420 µg/mL). In data set [2], the “SERCA2a SUMOylation” value is recorded as “Increased 1.43x compared with DMSO control”. Further, the “Cardiac Contraction: Peak shortening” value in data set [3] is listed as “Peak shortening 2.5x compared to DMSO control”. Further, the Toxicity result in data set [4] was “Non-toxic”. The compound also came in with a fold induction at 10 µM in data set [5] of 2.49.
Take `COc1ccc(-c2nnc(Nc3nc4c(F)cccc4s3)o2)cc1` [Example 4, N-(4-fluorobenzo[d]thiazol-2-yl)-5-(4-methoxyphenyl)-1,3,4-oxadiazol-2-amine]: in data set [1], the solubility came out at 10 mM (≈ 3420 µg/mL). The “SERCA2a SUMOylation” value in data set [2] is listed as “Increased 1.4x compared with DMSO control”. In addition, in data set [3], the “Cardiac Contraction: Peak shortening” value is listed as “Peak shortening 4.3x compared to DMSO control”. Also, the Toxicity result in data set [4] is given as “Non-toxic”. This compound also returned a fold induction at 10 µM in data set [5] of 2.34.
For the compound “N-(6-fluorobenzo[d]thiazol-2-yl)-5-(4-methoxyphenyl)-1,3,4-oxadiazol-2-amine [Example 14]”, in data set [2], the “SERCA2a SUMOylation” value was “Not statistically significant”. Moreover, in data set [5] (10 μM, 24 hours), the YFP accumulation result was “Active”. Besides, the Toxicity in data set [6] is > 50%.
